{"source": "paper PMC4858680", "about": "“A platinum-based hybrid drug design approach to circumvent acquired resistance to molecular targeted tyrosine kinase inhibitors” (Scientific Reports, 2016)", "key": {"[1]": {"target": "T1, EPHB2 (Homo sapiens, UniProt P29323)", "T1 sequence (P29323 19-1055)": "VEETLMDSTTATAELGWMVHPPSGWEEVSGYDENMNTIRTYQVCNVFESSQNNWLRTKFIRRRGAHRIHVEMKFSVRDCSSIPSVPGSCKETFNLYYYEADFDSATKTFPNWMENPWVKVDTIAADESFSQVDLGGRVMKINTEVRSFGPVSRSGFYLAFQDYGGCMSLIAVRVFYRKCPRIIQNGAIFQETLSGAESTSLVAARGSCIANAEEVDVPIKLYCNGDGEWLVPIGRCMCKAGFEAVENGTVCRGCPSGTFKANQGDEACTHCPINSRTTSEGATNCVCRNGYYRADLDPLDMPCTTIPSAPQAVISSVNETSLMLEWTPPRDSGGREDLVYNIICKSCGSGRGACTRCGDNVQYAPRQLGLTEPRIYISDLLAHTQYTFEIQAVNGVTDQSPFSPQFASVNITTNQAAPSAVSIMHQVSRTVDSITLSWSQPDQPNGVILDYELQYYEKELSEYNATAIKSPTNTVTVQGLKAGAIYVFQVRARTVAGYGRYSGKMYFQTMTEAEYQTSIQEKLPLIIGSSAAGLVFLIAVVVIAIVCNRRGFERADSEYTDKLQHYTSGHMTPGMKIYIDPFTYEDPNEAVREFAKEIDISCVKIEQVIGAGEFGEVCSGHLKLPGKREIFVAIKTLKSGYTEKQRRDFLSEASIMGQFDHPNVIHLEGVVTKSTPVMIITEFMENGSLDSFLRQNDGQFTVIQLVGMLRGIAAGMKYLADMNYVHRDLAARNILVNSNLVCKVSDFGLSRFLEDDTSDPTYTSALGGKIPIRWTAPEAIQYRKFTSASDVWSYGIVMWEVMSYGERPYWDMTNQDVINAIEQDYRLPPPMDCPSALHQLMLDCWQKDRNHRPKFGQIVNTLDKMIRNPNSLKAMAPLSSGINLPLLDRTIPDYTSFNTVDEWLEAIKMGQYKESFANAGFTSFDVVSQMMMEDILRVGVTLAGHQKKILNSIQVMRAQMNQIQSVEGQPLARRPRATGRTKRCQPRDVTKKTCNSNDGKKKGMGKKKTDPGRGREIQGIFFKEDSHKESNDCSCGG", "test": "biochemical", "conditions": "read-out: Percent control"}, "[2]": {"target": "PDGFRA (Homo sapiens, UniProt P16234)", "sequence (P16234 24-1089)": "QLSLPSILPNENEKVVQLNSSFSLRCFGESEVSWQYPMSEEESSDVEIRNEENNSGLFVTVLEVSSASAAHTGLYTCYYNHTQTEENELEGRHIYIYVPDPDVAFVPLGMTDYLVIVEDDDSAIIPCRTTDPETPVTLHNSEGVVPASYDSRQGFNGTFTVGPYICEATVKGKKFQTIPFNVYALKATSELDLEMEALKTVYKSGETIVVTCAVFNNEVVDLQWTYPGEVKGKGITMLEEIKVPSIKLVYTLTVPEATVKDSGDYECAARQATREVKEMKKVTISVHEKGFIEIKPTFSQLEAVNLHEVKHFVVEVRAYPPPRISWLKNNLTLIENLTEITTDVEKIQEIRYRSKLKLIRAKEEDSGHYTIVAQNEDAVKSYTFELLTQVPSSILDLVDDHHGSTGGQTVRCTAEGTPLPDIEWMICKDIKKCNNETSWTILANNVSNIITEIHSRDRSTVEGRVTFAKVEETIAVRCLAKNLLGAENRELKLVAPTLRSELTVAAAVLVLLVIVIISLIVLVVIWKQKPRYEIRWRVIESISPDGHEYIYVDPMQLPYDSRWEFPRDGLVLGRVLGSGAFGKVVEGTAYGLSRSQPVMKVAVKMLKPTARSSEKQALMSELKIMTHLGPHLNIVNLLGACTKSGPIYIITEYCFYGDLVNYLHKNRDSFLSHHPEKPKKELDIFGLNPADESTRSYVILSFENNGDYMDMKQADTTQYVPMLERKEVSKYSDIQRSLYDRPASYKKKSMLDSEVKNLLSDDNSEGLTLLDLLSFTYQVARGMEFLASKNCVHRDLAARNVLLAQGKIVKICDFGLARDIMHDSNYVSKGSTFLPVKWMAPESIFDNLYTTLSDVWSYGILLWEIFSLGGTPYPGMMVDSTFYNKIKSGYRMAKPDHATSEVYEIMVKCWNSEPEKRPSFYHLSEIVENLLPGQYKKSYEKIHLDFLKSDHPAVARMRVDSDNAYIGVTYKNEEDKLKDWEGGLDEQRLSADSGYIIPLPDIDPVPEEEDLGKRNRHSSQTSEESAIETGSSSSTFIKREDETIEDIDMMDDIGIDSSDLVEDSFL", "test": "biochemical", "conditions": "read-out: Percent control"}, "[3]": {"target": "T2, YES (Homo sapiens, UniProt P07947)", "T2 construct": "purchased DiscoveRx Corporation (KINOMEscan service)", "assay_type": "binding", "conditions": "for Percent control: 10 μM"}, "[4]": {"target": "FGFR3 (Homo sapiens, UniProt P22607)", "sequence (P22607 23-806)": "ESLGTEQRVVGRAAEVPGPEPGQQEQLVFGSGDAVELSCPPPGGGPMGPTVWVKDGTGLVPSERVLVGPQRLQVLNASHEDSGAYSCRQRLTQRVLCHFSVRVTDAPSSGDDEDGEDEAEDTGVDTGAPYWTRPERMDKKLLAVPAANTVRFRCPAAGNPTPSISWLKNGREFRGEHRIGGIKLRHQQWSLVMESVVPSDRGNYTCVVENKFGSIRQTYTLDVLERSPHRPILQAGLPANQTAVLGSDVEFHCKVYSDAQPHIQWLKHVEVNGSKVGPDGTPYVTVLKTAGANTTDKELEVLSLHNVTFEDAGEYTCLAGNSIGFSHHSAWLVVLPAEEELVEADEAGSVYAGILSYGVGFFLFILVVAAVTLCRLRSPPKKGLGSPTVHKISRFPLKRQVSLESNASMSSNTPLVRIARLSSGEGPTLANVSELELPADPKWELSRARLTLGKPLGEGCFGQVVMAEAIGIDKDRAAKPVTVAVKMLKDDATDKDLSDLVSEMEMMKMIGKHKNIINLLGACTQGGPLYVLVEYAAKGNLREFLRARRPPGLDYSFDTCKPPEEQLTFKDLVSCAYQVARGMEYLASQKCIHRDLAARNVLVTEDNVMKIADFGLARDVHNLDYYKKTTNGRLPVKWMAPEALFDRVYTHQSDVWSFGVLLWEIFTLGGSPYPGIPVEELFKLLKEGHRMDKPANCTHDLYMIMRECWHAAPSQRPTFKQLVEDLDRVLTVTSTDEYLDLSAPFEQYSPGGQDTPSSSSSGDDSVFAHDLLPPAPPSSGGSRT", "conditions": "10 μM"}, "[5]": {"target": "FLT1 (Homo sapiens, UniProt P17948)", "conditions": "10 μM"}, "[6]": {"target": "T3, FLT3(R834Q) (Homo sapiens, UniProt P36888, R834Q)", "T3 sequence (P36888 27-993 R834Q)": "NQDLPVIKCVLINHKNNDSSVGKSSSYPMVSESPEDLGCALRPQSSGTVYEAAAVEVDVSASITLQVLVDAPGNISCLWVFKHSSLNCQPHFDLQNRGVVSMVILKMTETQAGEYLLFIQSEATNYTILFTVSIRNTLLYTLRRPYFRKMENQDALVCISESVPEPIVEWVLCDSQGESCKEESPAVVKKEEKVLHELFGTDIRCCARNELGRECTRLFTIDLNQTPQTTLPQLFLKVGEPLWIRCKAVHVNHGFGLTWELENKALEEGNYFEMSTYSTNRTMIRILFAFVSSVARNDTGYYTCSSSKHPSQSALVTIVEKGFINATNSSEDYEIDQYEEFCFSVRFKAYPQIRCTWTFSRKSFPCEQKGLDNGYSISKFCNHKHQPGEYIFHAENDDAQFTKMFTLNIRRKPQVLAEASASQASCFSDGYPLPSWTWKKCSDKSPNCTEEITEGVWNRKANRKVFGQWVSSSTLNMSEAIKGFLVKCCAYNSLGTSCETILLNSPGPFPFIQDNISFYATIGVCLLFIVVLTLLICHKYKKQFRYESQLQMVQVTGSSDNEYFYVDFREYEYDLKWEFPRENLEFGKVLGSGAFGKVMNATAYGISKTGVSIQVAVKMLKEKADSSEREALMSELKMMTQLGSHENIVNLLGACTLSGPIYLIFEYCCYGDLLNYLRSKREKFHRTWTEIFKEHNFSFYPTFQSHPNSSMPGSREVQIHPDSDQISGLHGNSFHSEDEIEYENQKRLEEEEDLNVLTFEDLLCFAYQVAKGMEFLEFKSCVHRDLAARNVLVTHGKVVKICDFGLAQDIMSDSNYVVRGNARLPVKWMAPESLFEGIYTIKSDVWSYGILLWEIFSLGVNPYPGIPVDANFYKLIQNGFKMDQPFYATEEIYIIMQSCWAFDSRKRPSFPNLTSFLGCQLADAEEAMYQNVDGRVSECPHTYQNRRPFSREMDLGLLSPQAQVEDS"}, "[7]": {"target": "LTK (Homo sapiens, UniProt P29376)", "sequence (P29376 17-864)": "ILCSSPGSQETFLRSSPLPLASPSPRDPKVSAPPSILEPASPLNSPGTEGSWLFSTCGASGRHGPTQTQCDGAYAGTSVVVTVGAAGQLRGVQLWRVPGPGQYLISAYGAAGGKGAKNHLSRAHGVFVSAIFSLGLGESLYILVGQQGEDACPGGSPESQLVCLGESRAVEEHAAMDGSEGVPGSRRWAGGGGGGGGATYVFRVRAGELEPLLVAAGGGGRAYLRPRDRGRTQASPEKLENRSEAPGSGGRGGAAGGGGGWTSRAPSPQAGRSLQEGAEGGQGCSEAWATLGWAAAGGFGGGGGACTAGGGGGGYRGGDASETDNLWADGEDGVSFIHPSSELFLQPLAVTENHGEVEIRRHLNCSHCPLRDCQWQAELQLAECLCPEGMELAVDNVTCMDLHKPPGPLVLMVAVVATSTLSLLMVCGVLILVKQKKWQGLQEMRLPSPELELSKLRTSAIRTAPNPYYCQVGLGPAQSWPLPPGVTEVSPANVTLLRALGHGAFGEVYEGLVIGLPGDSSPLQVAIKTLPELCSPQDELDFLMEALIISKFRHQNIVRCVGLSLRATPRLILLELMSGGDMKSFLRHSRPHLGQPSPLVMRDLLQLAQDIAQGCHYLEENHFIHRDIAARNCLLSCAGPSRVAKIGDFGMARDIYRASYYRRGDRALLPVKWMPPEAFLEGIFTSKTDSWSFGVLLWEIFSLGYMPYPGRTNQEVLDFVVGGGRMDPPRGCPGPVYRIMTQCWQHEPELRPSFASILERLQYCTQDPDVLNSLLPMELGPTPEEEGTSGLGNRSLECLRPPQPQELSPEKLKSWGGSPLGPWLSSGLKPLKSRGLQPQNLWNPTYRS", "conditions": "10 μM"}, "[8]": {"target": "LYN (Homo sapiens, UniProt P07948)", "sequence (P07948 whole entry)": "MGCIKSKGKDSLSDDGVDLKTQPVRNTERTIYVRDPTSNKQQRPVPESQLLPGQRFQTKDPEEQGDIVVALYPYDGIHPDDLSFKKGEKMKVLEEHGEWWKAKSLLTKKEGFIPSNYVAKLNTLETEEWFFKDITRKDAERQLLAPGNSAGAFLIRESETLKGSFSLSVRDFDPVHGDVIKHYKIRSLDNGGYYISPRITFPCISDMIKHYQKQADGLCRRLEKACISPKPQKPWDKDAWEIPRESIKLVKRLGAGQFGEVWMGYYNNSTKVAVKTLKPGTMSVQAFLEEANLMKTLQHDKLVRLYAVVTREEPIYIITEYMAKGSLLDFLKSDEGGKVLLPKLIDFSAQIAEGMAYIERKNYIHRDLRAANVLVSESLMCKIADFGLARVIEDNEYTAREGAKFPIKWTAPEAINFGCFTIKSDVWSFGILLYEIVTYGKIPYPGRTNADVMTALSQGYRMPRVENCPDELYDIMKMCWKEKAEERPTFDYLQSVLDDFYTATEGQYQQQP", "conditions": "10 μM"}, "[9]": {"target": "MET (Homo sapiens, UniProt P08581)", "conditions": "10 μM"}, "[10]": {"target": "MET(Y1235D) (Homo sapiens, UniProt P08581, Y1235D)", "conditions": "10 μM"}, "[11]": {"target": "RET(M918T) (Homo sapiens, UniProt P07949, M918T)", "sequence (P07949 29-1114 M918T)": "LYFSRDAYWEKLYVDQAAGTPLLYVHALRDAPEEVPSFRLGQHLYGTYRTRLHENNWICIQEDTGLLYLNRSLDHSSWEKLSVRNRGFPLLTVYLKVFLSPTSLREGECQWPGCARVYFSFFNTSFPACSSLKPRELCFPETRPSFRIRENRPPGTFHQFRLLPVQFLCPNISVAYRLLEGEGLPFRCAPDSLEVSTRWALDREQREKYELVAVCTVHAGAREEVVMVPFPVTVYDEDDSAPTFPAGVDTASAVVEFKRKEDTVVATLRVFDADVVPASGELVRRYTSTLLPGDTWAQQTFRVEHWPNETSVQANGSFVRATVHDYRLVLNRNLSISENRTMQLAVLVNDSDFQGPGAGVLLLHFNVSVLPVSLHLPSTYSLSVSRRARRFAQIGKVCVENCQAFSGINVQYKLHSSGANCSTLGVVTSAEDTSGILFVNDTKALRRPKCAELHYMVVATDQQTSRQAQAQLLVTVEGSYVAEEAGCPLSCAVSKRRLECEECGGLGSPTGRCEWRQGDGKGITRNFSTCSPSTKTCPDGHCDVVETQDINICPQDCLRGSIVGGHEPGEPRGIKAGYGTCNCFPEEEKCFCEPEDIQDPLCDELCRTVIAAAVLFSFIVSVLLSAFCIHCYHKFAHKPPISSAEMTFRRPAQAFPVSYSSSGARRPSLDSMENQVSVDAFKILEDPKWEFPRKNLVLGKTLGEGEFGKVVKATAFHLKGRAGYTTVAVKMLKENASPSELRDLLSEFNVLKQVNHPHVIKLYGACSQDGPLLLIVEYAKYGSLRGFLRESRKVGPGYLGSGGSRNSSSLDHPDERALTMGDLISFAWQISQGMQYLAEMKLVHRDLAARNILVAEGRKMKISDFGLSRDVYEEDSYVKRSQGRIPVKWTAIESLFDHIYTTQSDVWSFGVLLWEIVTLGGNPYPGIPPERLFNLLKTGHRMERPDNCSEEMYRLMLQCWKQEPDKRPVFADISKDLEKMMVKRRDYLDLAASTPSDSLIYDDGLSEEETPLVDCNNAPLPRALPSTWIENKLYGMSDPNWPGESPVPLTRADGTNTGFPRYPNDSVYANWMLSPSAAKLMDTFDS", "conditions": "10 μM"}}, "note": "Like-named read-outs stand apart in the source and are kept apart here.", "data": [{"compound": "C#Cc1cccc(Nc2ncnc3cc(OCCOC)c(OCCOC)cc23)c1", "note": "[Erlotinib]", "values": [{"measurement": "remaining activity at 10 µM", "setting": "[1]", "value": 100, "unit": "%"}, {"measurement": "remaining activity at 10 µM", "setting": "[2]", "value": 15.3, "unit": "%"}]}, {"compound": "Cc1ccc(NC(=O)c2ccc(CN3CCN(C)CC3)cc2)cc1Nc1nccc(-c2cccnc2)[n+]1[Pt-2]1([Cl])[NH2+]C2CCCCC2[NH2+]1", "note": "(centres unmarked) [1b, oxaliplatin-imatinib]", "values": [{"measurement": "Percent control", "setting": "[3]", "value": 100, "unit": "%"}, {"measurement": "Percent control", "setting": "[4]", "value": 94, "unit": "%"}, {"measurement": "Percent control", "setting": "[5]", "value": 85, "unit": "%"}, {"measurement": "Percent control", "setting": "[6]; FLT3(R834Q), 10 μM", "value": 94, "unit": "%"}, {"measurement": "Percent control", "setting": "[7]", "value": 85, "unit": "%"}, {"measurement": "Percent control", "setting": "[8]", "value": 67, "unit": "%"}, {"measurement": "Percent control", "setting": "[9]", "value": 88, "unit": "%"}, {"measurement": "Percent control", "setting": "[10]", "value": 100, "unit": "%"}, {"measurement": "Percent control", "setting": "[11]", "value": 88, "unit": "%"}]}, {"compound": "COc1cc2c(Nc3ccc(Br)cc3F)ncnc2cc1OCC1CCN(C)CC1", "note": "[Vandetanib, reference compound]", "values": [{"measurement": "remaining binding at 10 µM", "setting": "[3]; read-out: Percent control", "value": 1.2, "unit": "%"}, {"measurement": "remaining activity at 10 µM", "setting": "[1]", "value": 4.2, "unit": "%"}, {"measurement": "remaining activity at 10 µM", "setting": "[2]", "value": 2.2, "unit": "%"}]}, {"compound": "COc1cc2c(Nc3ccc(Br)cc3F)[n+]([Pt-2]3([Cl])[NH2+]C4CCCCC4[NH2+]3)cnc2cc1OCC1CCN(C)CC1", "note": "(centres unmarked) [3b, oxaliplatin-vandetanib]", "values": [{"measurement": "Percent control", "setting": "[3]", "value": 23, "unit": "%"}, {"measurement": "Percent control", "setting": "[6]", "value": 89}, {"measurement": "Percent control", "setting": "[7]", "value": 27, "unit": "%"}, {"measurement": "Percent control", "setting": "[8]", "value": 21, "unit": "%"}]}, {"compound": "C#Cc1cccc(Nc2c3cc(OCCOC)c(OCCOC)cc3nc[n+]2[Pt@SP2-2]([NH3+])([NH3+])[Cl])c1", "note": "[2a, cisplatin-erlotinib]", "values": [{"measurement": "Percent control", "setting": "[3]", "value": 100, "unit": "%"}, {"measurement": "Percent control", "setting": "[4]", "value": 89, "unit": "%"}, {"measurement": "Percent control", "setting": "[5]", "value": 88, "unit": "%"}, {"measurement": "Percent control", "setting": "[6]", "value": 80}, {"measurement": "Percent control", "setting": "[7]", "value": 82, "unit": "%"}, {"measurement": "Percent control", "setting": "[8]", "value": 69, "unit": "%"}, {"measurement": "Percent control", "setting": "[9]", "value": 63, "unit": "%"}, {"measurement": "Percent control", "setting": "[10]", "value": 92, "unit": "%"}, {"measurement": "Percent control", "setting": "[11]", "value": 61, "unit": "%"}]}, {"compound": "Cc1ccc(NC(=O)c2ccc(CN3CCN(C)CC3)cc2)cc1Nc1nccc(-c2cccnc2)n1", "note": "[Imatinib, reference compound]", "values": [{"measurement": "Percent control", "setting": "[4]", "value": 100, "unit": "%"}, {"measurement": "Percent control", "setting": "[5]", "value": 100, "unit": "%"}, {"measurement": "Percent control", "setting": "[6]; FLT3(R834Q), 10 μM", "value": 100, "unit": "%"}, {"measurement": "Percent control", "setting": "[7]", "value": 92, "unit": "%"}, {"measurement": "Percent control", "setting": "[8]", "value": 74, "unit": "%"}, {"measurement": "Percent control", "setting": "[11]", "value": 100, "unit": "%"}, {"measurement": "remaining activity at 10 µM", "setting": "[1]", "value": 100, "unit": "%"}, {"measurement": "remaining activity at 10 µM", "setting": "[2]", "value": 0.3, "unit": "%"}]}]}
